Reference: patent publication US7183252B2, “Indole peptidomimetics as thrombin receptor antagonists” (Ortho-McNeil Pharmaceutical, Inc., priority 1999, dated 2007)
Read-outs that look alike come from different tables or passages of the source.

Experiments:
gel-filtered platelets = assay: In vitro inhibition of thrombin-induced gel-filtered platelet aggregation; type: cell-based; conditions: human gel-filtered platelets, agonist thrombin 50 μL of 1 unit/mL, read-out: Thrmb IC50 (Thrombin-induced aggregation of gel-filtered platelets)
Procedure, shortened: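 Gel-filtered (Sepharose 2B) human platelets from citrated PRP, 2×10^7 per sample, in Tyrode's buffer pH 7.4 with BSA and added calcium, preincubated with test compound. Aggregation induced by thrombin (50 μL of 1 unit/mL) and followed as light transmission over 3 min. Inhibition is taken relative to control-treated platelets.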

[1] = target: T1, thrombin receptor (PAR-1) (Homo sapiens, UniProt P25116); assay: In vitro thrombin receptor binding assay (CHRF membranes); conditions: tritiated 721-40 radioligand, read-out: Bndg IC50 (Thrombin receptor binding)
T1 construct: CHRF membranes (Jones, Biochim. Biophys. Acta 1992, 1136, 272) are thawed from −70° C; endogenous in cells; host or cells: CHRF cell membranes
T1 sequence (P25116 22-425): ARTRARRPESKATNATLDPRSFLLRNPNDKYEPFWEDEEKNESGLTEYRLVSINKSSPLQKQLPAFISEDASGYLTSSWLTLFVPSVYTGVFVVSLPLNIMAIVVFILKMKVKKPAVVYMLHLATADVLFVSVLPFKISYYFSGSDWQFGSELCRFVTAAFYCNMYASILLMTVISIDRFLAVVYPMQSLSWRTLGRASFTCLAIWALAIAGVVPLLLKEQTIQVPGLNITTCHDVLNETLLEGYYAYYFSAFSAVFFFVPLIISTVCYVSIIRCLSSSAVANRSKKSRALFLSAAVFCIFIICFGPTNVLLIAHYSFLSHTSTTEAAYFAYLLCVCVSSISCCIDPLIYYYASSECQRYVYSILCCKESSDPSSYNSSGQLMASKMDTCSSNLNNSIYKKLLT
Procedure, shortened: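 CHRF cell membranes incubated 30 min with tritiated peptide agonist 721–40 and compound at 3.7 μg/mL final (0.6% DMSO) in HEPES/MgCl2/BSA buffer. Nonspecific binding defined with unlabeled 721–40; bound radioactivity counted after filtration onto PEI-treated filters.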

## Cn1cnc(CCNC(=O)[C@H](CCCN)NC(=O)[C@H](Cc2ccc(F)c(F)c2)NC(=O)Nc2ccc3c(CN4CCCC4)cn(Cc4c(Cl)cccc4Cl)c3c2)c1 [Compound 124]
gel-filtered platelets
  IC50: 440 nM
[1]
  IC50: 1200 nM

## CN(Cc1cn(Cc2c(Cl)cccc2Cl)c2cc(NC(=O)N[C@@H](Cc3ccc(Cl)cc3)C(=O)N[C@@H](CCCN)C(=O)NCCc3ccccc3Cl)ccc12)C1CCCC1 [Compound 119]
gel-filtered platelets; Platelet
  IC50: 3200 nM
[1]
  IC50: 6200 nM

## COc1ccc(C[C@H](NC(=O)Nc2ccc3c(CN4CCCC4)cn(Cc4cccc(F)c4)c3c2)C(=O)N[C@@H](CCCNC(=N)N)C(=O)NCc2ccccc2)cc1 [Compound 6]
gel-filtered platelets; Platelet
  IC50: 3500 nM
[1]
  IC50: 6600 nM

## N#Cc1ccc(C[C@H](NC(=O)Nc2ccc3c(CN4CCCC4)cn(Cc4c(Cl)cccc4Cl)c3c2)C(=O)N[C@@H](CCCNC(=N)N)C(=O)NCc2ccccc2)cc1 [Compound 52]
gel-filtered platelets; Platelet
  IC50: 480 nM
[1]
  IC50: 5300 nM

## N=C(N)NCCC[C@H](NC(=O)[C@H](Cc1ccc(F)c(F)c1)NC(=O)Nc1ccc2c(CN3CCCC3)cn(Cc3ccc(F)cc3)c2c1)C(=O)NC(c1ccccc1)c1ccccc1 [Compound 60]
gel-filtered platelets; Platelet
  IC50: 930 nM
[1]
  IC50: 2800 nM

## CC(C)NCCCC[C@H](NC(=O)[C@H](Cc1ccc(F)c(F)c1)NC(=O)Nc1ccc2c(CN3CCCCC3)cn(Cc3c(Cl)cccc3Cl)c2c1)C(=O)NCc1ccccc1 [Compound 67]
gel-filtered platelets; Platelet
  IC50: 420 nM
[1]
  IC50: 450 nM

## NCCNC(=O)[C@H](Cc1ccncc1)NC(=O)[C@H](Cc1ccc(Cl)cc1)NC(=O)Nc1ccc2c(CN3CCCC3)cn(Cc3c(Cl)cccc3Cl)c2c1 [Compound 135, L-Alaninamide, 4-chloro-N-[[[1-[(2,6-dichlorophenyl)methyl]-3-(1-pyrrolidinylmethyl)-1H-indol-6-yl]amino]carbonyl]-L-phenylalanyl-N-(2-aminoethyl)-3-(4-pyridinyl)-]
gel-filtered platelets
  IC50: 690 nM
[1]
  IC50: 890 nM

## CCSC[C@H](NC(=O)[C@H](Cc1ccc(Cl)cc1)NC(=O)Nc1ccc2c(CN3CCCC3)cn(Cc3c(Cl)cccc3Cl)c2c1)C(=O)NCCN [Compound 149]
gel-filtered platelets; Platelet
  IC50: 1200 nM
[1]
  IC50: 150 nM

## NCCNC(=O)[C@H](Cc1cccc(F)c1)NC(=O)[C@H](Cc1ccc(F)c(F)c1)NC(=O)Nc1ccc2c(CN3CCCC3)cn(Cc3c(Cl)cccc3Cl)c2c1 [Compound 138]
gel-filtered platelets; Platelet
  IC50: 330 nM
[1]
  IC50: 2000 nM

## NCC[C@H](NC(=O)[C@H](Cc1ccc(F)c(F)c1)NC(=O)Nc1ccc2c(CN3CCSC3)cn(Cc3c(Cl)cccc3Cl)c2c1)C(=O)NCc1ccccc1 [Compound 154]
gel-filtered platelets; Platelet
  IC50: 12900 nM
[1]
  IC50: 750 nM

## COc1ccc(C[C@H](NC(=O)Nc2ccc3c(CN4CCCC4)cn(Cc4ccc(F)cc4)c3c2)C(=O)N[C@@H](CCCNC(=N)N)C(=O)NCc2ccccc2)cc1 [Compound 1]
gel-filtered platelets; Platelet
  IC50: 830 nM
[1]
  IC50: 600 nM

## COc1ccc(C[C@H](NC(=O)Nc2ccc3c(CN4CCCC4)cn(Cc4cccc(C)c4)c3c2)C(=O)N[C@@H](CCCNC(=N)N)C(=O)NCC2CCCCC2)cc1 [Compound 9]
gel-filtered platelets; Platelet
  IC50: 2500 nM
[1]
  IC50: 10400 nM

## NCCCNC(=O)[C@H](Cc1ccncc1)NC(=O)[C@H](Cc1ccc(Cl)cc1)NC(=O)Nc1ccc2c(CN3CCCC3)cn(Cc3c(Cl)cccc3Cl)c2c1 [Compound 145]
gel-filtered platelets; Platelet
  IC50: 250 nM
[1]
  IC50: 500 nM

## Cc1ccccc1Cn1cc(CN2CCCC2)c2ccc(NC(=O)N[C@@H](Cc3cccc(C(F)(F)F)c3)C(=O)N[C@@H](CCCNC(=N)N)C(=O)NCc3ccccc3)cc21 [Compound 54]
gel-filtered platelets; Platelet
  IC50: 500 nM
[1]
  IC50: 16000 nM

## N=C(N)NCCC[C@H](NC(=O)[C@H](Cc1ccccc1F)NC(=O)Nc1ccc2c(CN3CCCC3)cn(Cc3c(Cl)cccc3Cl)c2c1)C(=O)NCc1ccccc1 [Compound 51]
gel-filtered platelets; Platelet
  IC50: 680 nM
[1]
  IC50: 800 nM

## NCCC[C@H](NC(=O)[C@H](Cc1ccc(F)c(F)c1)NC(=O)Nc1ccc2c(CN3CCCC3)cn(Cc3c(Cl)cccc3Cl)c2c1)C(=O)NCCc1ccncc1 [Compound 109]
gel-filtered platelets; Platelet
  IC50: 840 nM
[1]
  IC50: 610 nM

## Cc1ccccc1Cn1cc(CN2CCCC2)c2ccc(NC(=O)N[C@@H](Cc3ccc(OCc4ccccc4)cc3)C(=O)N[C@@H](CCCN=C(N)N)C(=O)NCc3ccccc3)cc21 [Compound 36]
gel-filtered platelets; Platelet
  IC50: 6800 nM
[1]
  IC50: 16700 nM

## CCCCCCCCNC(=O)[C@H](CCCNC(=N)N)NC(=O)[C@H](Cc1ccc(F)c(F)c1)NC(=O)Nc1ccc2c(CN3CCCCC3)cn(Cc3ccc(F)cc3)c2c1 [Compound 73]
gel-filtered platelets; Platelet
  IC50: 2400 nM
[1]
  IC50: 7500 nM

## NCC[C@H](NC(=O)[C@H](Cc1ccc2ccccc2c1)NC(=O)Nc1ccc2c(CN3CCCC3)cn(Cc3c(Cl)cccc3Cl)c2c1)C(=O)NCc1ccccc1 [Compound 129]
gel-filtered platelets; Platelet
  IC50: 860 nM
[1]
  IC50: 2500 nM

## NCC[C@H](NC(=O)[C@H](Cc1cccnc1)NC(=O)Nc1ccc2c(CN3CCCC3)cn(Cc3c(Cl)cccc3Cl)c2c1)C(=O)NCc1ccccc1 [Compound 130]
gel-filtered platelets; Platelet
  IC50: 27800 nM
[1]
  IC50: 4800 nM

## Cc1ccccc1Cn1c(Cl)c(CN2CCCC2)c2ccc(NC(=O)N[C@@H](Cc3ccc(F)c(F)c3)C(=O)N[C@@H](CCCNC(=N)N)C(=O)NCc3ccccc3)cc21 [Compound 172]
gel-filtered platelets; Platelet
  IC50: > 10000 nM
[1]
  IC50: 6800 nM

## NCCNC(=O)[C@@H](Cc1ccncc1)NC(=O)[C@@H](Cc1ccc(F)c(F)c1)NC(=O)c1ccc2c(CN3CCCC3)cn(Cc3c(Cl)cccc3Cl)c2c1 [Compound 176]
gel-filtered platelets
  IC50: 45700 nM
[1]
  IC50: 43200 nM

## COc1ccc(C[C@H](NC(=O)Nc2ccc3c(CNC4CC4)cn(Cc4ccc(F)cc4)c3c2)C(=O)N[C@@H](CCCNC(=N)N)C(=O)NCc2ccccc2)cc1 [Compound 45]
gel-filtered platelets; Platelet
  IC50: > 10000 nM
[1]
  IC50: 13900 nM

## NCC[C@H](NC(=O)[C@H](Cc1ccc(F)c(F)c1)NC(=O)Nc1cccc2c(CN3CCCC3)cn(Cc3c(Cl)cccc3Cl)c12)C(=O)NCc1ccccc1 [Compound 167]
gel-filtered platelets; Platelet
  IC50: 8500 nM
[1]
  IC50: 67600 nM

## COc1ccc(C[C@H](NC(=O)Nc2ccc3c(CN4CCCC4)cn(Cc4ccc5ccccc5c4)c3c2)C(=O)N[C@@H](CCCNC(=N)N)C(=O)NCc2ccccc2)cc1 [Compound 15]
gel-filtered platelets; Platelet
  IC50: 11800 nM
[1]
  IC50: 4300 nM

## NCCNC(=O)[C@H](Cc1ccccc1)NC(=O)[C@H](Cc1ccc(Cl)cc1)NC(=O)Nc1ccc2c(CN3CCCC3)cn(Cc3c(Cl)cccc3Cl)c2c1 [Compound 133]
gel-filtered platelets; Platelet
  IC50: 860 nM
[1]
  IC50: 1500 nM

## NCCNC(=O)[C@H](Cc1cccs1)NC(=O)[C@H](Cc1ccc(Cl)cc1)NC(=O)Nc1ccc2c(CN3CCCC3)cn(Cc3c(Cl)cccc3Cl)c2c1 [Compound 136]
gel-filtered platelets; Platelet
  IC50: 550 nM
[1]
  IC50: 1100 nM
